According to article PMC6586119, “Synthesis and biological evaluation of novel 8-substituted quinoline-2-carboxamides as carbonic anhydrase inhibitors” (Journal of Enzyme Inhibition and Medicinal Chemistry, 2019):
Where two headings read alike, the source gives them in different places.

How the values were obtained:
Test in all cases: stopped-flow CO2 hydration assay
Format in all cases: biochemical
hCA II = target: T1, hCA II (Homo sapiens, UniProt P00918)
T1 construct: gene CA2; recombinant, cytosolic isoform
Source text: stopped-flow CO2 hydration assay on hCA II

hCA IV = target: T2, hCA IV (Homo sapiens, UniProt P22748)
T2 construct: gene CA4
T2 sequence (P22748 19-284): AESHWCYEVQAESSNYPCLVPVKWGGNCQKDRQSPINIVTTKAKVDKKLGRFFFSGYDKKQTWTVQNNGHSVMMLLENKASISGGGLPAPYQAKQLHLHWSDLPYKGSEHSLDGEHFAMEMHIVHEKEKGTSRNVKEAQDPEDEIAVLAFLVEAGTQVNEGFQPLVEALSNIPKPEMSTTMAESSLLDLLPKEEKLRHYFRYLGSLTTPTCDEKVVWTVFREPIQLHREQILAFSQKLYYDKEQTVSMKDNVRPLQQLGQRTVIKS
Source text: stopped-flow CO2 hydration assay on hCA IV

hCA I = target: T3, hCA I (Homo sapiens, UniProt P00915)
T3 construct: gene CA1; recombinant, cytosolic isoform
T3 sequence (P00915 2-261): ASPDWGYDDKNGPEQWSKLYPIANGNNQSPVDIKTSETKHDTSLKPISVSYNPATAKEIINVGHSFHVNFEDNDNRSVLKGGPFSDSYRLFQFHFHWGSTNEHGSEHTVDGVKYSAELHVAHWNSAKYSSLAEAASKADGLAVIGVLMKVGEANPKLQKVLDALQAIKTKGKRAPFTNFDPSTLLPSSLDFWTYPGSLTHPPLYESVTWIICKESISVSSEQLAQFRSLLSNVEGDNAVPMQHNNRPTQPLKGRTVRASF
Source text: stopped-flow CO2 hydration assay on hCA I

[1] = CO2 hydration, […] Hepes pH […] °C, […] Na2SO4 or NaClO4, […] min preincubation

NS(=O)(=O)c1ccc(NC(=O)c2ccc3cccc(OCc4ccc([N+](=O)[O-])cc4)c3n2)cc1 [5a, 8-((4-Nitrobenzyl)oxy)-N-(4-sulfamoylphenyl)quinoline-2-carboxamide]
Ki (hCA II): 0.0884 µM | Ki (hCA IV): 0.691 µM | Ki (hCA I): 0.641 µM

NS(=O)(=O)c1ccc(NC(=O)c2ccc3cccc(OCc4ccccc4Br)c3n2)cc1 [5b, 8-((2-Bromobenzyl)oxy)-N-(4-sulfamoylphenyl)quinoline-2-carboxamide]
Ki (hCA II): 0.0857 µM | Ki (hCA IV): 3.93 µM | Ki (hCA I): 0.444 µM

NS(=O)(=O)c1ccc(NC(=O)c2ccc3cccc(OCc4ccccc4)c3n2)cc1 [5c, 8-(Benzyloxy)-N-(4-sulfamoylphenyl)quinoline-2-carboxamide]
Ki (hCA II): 8.34 µM | Ki (hCA IV): 6.41 µM | Ki (hCA I): 5.29 µM

Cc1cc(C)cc(COc2cccc3ccc(C(=O)Nc4ccc(S(N)(=O)=O)cc4)nc23)c1 [5d, 8-((3,5-Dimethylbenzyl)oxy)-N-(4-sulfamoylphenyl)quinoline-2-carboxamide]
Ki (hCA II): 8.76 µM | Ki (hCA IV): 6.76 µM | Ki (hCA I): 8.13 µM

NS(=O)(=O)c1ccc(NC(=O)c2ccc3cccc(OCc4cccc(Cl)c4)c3n2)cc1 [5e, 8-((3-Chlorobenzyl)oxy)-N-(4-sulfamoylphenyl)quinoline-2-carboxamide]
Ki (hCA II): 5.17 µM | Ki (hCA IV): 0.807 µM | Ki (hCA I): 6.47 µM

NS(=O)(=O)c1ccc(NC(=O)c2ccc3cccc(OCc4cc(F)ccc4F)c3n2)cc1 [5f, 8-((2,5-Difluorobenzyl)oxy)-N-(4-sulfamoylphenyl)quinoline-2-carboxamide]
Ki (hCA II): 0.957 µM | Ki (hCA IV): 0.787 µM | Ki (hCA I): 6.56 µM

C#CCOc1cccc2ccc(C(=O)Nc3ccc(S(N)(=O)=O)cc3)nc12 [5g, 8-(Prop-2-yn-1-yloxy)-N-(4-sulfamoylphenyl)quinoline-2-carboxamide]
Ki (hCA II): 5.11 µM | Ki (hCA IV): 0.657 µM | Ki (hCA I): 6.91 µM

COc1cccc2ccc(C(=O)Nc3ccc(S(N)(=O)=O)cc3)nc12 [5h, 8-Methoxy-N-(4-sulfamoylphenyl)quinoline-2-carboxamide]
Ki (hCA II; [1]): 0.033 µM | Ki (hCA IV): 1.75 µM | Ki (hCA I; [1]): 0.0619 µM
